According to publication PMC8909107, “Imaging Kv1.3 Expressing Memory T Cells as a Marker of Immunotherapy Response” (Cancers, 2022):
Bridges are numbered along the chain shown (N, C = ends). Where no end group is shown, it is not given here. The star is where a group is joined. NOTA = O=C(O)CN1CCN(CC(=O)O)CCN(CC(=O)*)CC1

Assays:
[1] = biological target: T1, KV1.3 channels (L929 fibroblasts stably expressing KV1.3) (Mus musculus, UniProt P16390); assay: Patch-clamp (QPatch HTX), run-down of Kv1.3 currents after overnight exposure; assay type: cell-based; settings: L929-KV1.3 cells, overnight exposure 0.1, 1 or 10 μM; current density (pA/pF) at pulses 18-20 normalized to control; n = 13; read-out: IC50 (50% suppression) from normalized current density
T1 construct: expressed in transfected cells
T1 sequence (P16390 whole entry): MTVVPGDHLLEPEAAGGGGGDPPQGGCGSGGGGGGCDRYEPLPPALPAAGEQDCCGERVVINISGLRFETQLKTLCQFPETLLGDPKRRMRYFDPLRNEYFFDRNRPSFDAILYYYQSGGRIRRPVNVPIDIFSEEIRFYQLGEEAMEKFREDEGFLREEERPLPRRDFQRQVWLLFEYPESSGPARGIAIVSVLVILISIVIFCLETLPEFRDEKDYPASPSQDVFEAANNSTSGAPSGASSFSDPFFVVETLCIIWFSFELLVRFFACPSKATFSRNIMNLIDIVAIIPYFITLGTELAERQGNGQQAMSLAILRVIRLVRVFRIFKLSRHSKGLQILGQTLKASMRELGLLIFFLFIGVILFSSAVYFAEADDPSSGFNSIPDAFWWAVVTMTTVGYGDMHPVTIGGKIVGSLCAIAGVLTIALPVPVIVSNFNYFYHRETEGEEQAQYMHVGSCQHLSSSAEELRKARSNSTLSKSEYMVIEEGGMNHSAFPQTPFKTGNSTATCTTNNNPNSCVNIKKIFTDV
Procedure: The effects of the peptides NOTA-KCNA3P and EgK5 on KV1.2, KV1.3 and KV1.5 [19] channels were evaluated by patch-clamp as detailed in the Supplementary Materials (Supplementary Figure S3) using a QPatch HTX automated electrophysiology platform.
We used patch-clamp analysis to determine if NOTA-KCNA3P modulates Kv1.3 channels such as EgK5. We exposed L929 fibroblasts stably expressing KV1.3 channels overnight to NOTA-KCNA3P (0.1, 1 or 10 μM) or EgK5 (10 μM) dissolved in P6N buffer, or to media containing an equal volume of P6N buffer. […] Concentration–response curves generated with either normalized current amplitude or normalized current density yielded IC50 (50% suppression) values of […] and 50 nM, respectively, for NOTA-KCNA3P (Supplementary Figure S3D,E). […]
[18F]AlF-NOTA-KCNA3P was between 8.2 - 8.3 min. […] The radiochemical purity of [18F]AlF-NOTA-KCNA3P was assessed by analytical radio-HPLC (Aeris™ 5µm PEPTIDE XB-C18, 100 Å, 250 x 4.6 mm; 1 ml / min, λ = 220 nm). […]
NOTA-KCNA3P and EgK5 were prepared as 1-10 mM stock solutions in P6N buffer (10 mM sodium phosphate, 0.8% w/v, NaCl, and 0.05% v/v Tween 20, pH 6), diluted with 0.1% (w/v) BSA in external buffer. The effects of peptides on KV1.2, KV1.3 and KV1.5[1] channels were evaluated by patch-clamp using a QPatch HTX automated electrophysiol-ogy platform (Sophion, Denmark) (Supplementary Figure S3). […]

[2] = assay type: in vivo, BalbC mice bearing CT26 tumours
Procedure: (§1) Mice were imaged under isoflurane anaesthesia and injected with [^18F]AlF-NOTA-KCNA3P (~10 MBq) via the lateral tail vein. Dynamic time–activity curves were acquired to assess tracer uptake and clearance profiles (Supplementary Figure S4) and tail vein blood samples taken to assess in vivo metabolic stability (Supplementary Figure S7). To stratify response to therapy, animals were imaged on day 12 using a Siemens Inveon PET-CT as previously described. Briefly, 20 min static PET acquisitions were acquired from 60 min post-injection and analysis of the reconstructed calibrated images was performed and volumes of interest delineated by CT imaging were used to determine tissue uptake (whole body distribution shown for reference in Supplementary Figure S8). Data are expressed as % of the injected dose per gram (%ID/g) of tumour tissue in the volume of interest.
Tumour uptake of [^18F]AlF-NOTA-KCNA3P was heterogeneous depending on treatment regime and treatment efficacy (Figure 3A) with a tumour-to-blood ratio (TBR) of ~2 in tumour responders and a TBR of ~1 in tumour non-responders (TNRs). Low tumour uptake of [^18F]AlF-NOTA-KCNA3P was measured in the TNRs and the control treatment arm. […] Tumour uptake of [^18F]AlF-NOTA-KCNA3P was sufficient to distinguish from background and differentiated responsive tumours from treated non-responders (Table 1 and Figure 3B,C) in vivo. Ex vivo biodistribution was used to confirm the imaging results (Supplementary Figure S5). Importantly, no difference was seen between non-responders and responders in the biodistribution of [^18F]AlF-NOTA-KCNA3P in muscle, blood, lung, skin, heart and brain, the only difference being in the tumour (Supplementary Figure S5). […]
1.7 In vivo biodistribution of [18F]AlF-NOTA-KCNA3P
The biodistribution of [18F]AlF-NOTA-KCNA3P was assessed in BalbC mice bearing CT26 tumours treated with combined PD-1 and CTLA4 therapy. The animals were im-aged dynamically for 120 minutes and the distribution and excretion characteristics as- […]
the kidneys and hepatobiliary routes (Supplementary Figure S4). Blood clearance is […]
Supplementary Figure S5. Ex vivo biodistribution analysis of [18F]AlF-NOTA-KCNA3P retention in selected organs. ICI treated responder (TR, black) and treated non responder (TNR, white) animals were sacrificed 80min post-injection, tissues excised, weighed and radioactivity quantified using a Wallac gamma counter. Bars represent the mean of 5 animals ± SEM, * P<0.05.
1.9 Western blot analysis of Kv1.3 […]
The following anti- […]
bodies were used: anti-Kv1.3 KCNA3 (APC-101, Alomone) and anti-GAPDH (SC-47724, […]
Supplementary Figure S6. […]

[3] = PET-CT tumour retention of the tracer after ICI treatment; assay type: in vivo, BALB/c mice; settings: BALB/c, mouse, CT26 tumour, iv, 10 MBq, total radioactivity, PET-CT day 12, 20 min static from 60 min post-injection, ~10 MBq i.v., mean ± SD
Source text: All animal procedures strictly followed IACUC guidelines (IACUC No. 181399) and conformed to NIH guidelines and public law. Development of the animal model has been described previously. Briefly, BALB/c mice aged 6–8 weeks were purchased from In Vivos (Singapore) and implanted subcutaneously into the right shoulder with the murine colon cancer cell line CT26 (ATCC, 2 × 10^5 cells per animal 1:1 (v:v) ratio in Matrigel). Tumour volumes were repeatedly measured on days 6, 9, 12, 15, 19 and 21 post tumour implantation. The mice were randomised and dosed by intraperitoneal (i.p.) injection on days 6, 9 and 12 following tumour inoculation. Treatment groups included control (5 mg/kg, rat IgG2a isotype control, α-trinitrophenol mAb, IP), αPD1 mAb monotherapy (10 mg/kg, rat IgG2a anti-mouse PD-1, RMP1-14) and combined αPD1 and αCTLA4 mAb therapy (10 mg/kg and 5 mg/kg, respectively, mouse IgG2b anti-mouse CTLA-4, 9D9, Bio-X Cell).
as §1
Tumour uptake of [^18F]AlF-NOTA-KCNA3P was heterogeneous depending on treatment regime and treatment efficacy (Figure 3A) with a tumour-to-blood ratio (TBR) of ~2 in tumour responders and a TBR of ~1 in tumour non-responders (TNRs). Low tumour uptake of [^18F]AlF-NOTA-KCNA3P was measured in the TNRs and the control treatment arm. […] Tumour uptake of [^18F]AlF-NOTA-KCNA3P was sufficient to distinguish from background and differentiated responsive tumours from treated non-responders (Table 1 and Figure 3B,C) in vivo. Ex vivo biodistribution was used to confirm the imaging results (Supplementary Figure S5). Importantly, no difference was seen between non-responders and responders in the biodistribution of [^18F]AlF-NOTA-KCNA3P in muscle, blood, lung, skin, heart and brain, the only difference being in the tumour (Supplementary Figure S5).

[4] = parameters: species or system mice; settings: in vivo, ~20MBq i.v., blood samples at 0, 30, 60 and 120 min p.i., radioHPLC, over 120 minutes
Source text: as §1, with “Briefly, 20 min static PET acquisitions were acquired from 60 min post-injection and analysis of the reconstructed calibrated images was performed and volumes of interest delineated by CT imaging were used to determine tissue uptake (whole body distribution shown for reference in Supplementary Figure S8).” left out
Supplementary Figure S5. […] ICI treated responder (TR, black) and treated non responder (TNR, white) animals were sacrificed 80min post-injection, tissues excised, weighed and radioactivity quantified using a Wallac gamma counter. […]
Tumour Kv1.3 expression on infiltrating lymphocytes (TILs) were quantified using standard western blotting procedures as previously described. […]
An equal amount of 10% sulfosalicylic acid was added to the supernatant plasma samples and vortexed to precipitate out remaining proteins. The samples were centrifuged at 2,500 x g for 5 min at 4 °C, and the supernatant analyzed via radioHPLC. […]

Substance	IC50 [1] [nM]	Blood clearance ([2]; dynamic PET 120 minutes)	muscle uptake ([2]; dynamic PET 120 minutes)	excretion profile ([2]; dynamic PET 120 minutes, CT26 tumour mice treated with combined PD-1 and CTLA4 therapy)	difference between non-responders and responders in biodistribution in muscle, blood, lung, skin, heart and brain ([2]; ex vivo biodistribution, 80min post-injection, gamma counter, 5 animals)	tissue uptake ([3]; Control group (isotype IgG), n = 10 mice/group) [%ID/g]	tissue uptake ([3]; Treatment non-responders (TNR)) [%ID/g]	tissue uptake ([3]; Treatment responsive tumours (TR), αPD1 + αCTLA4) [%ID/g]	tissue uptake ([3]; Treatment responsive tumours (TR), αPD1) [%ID/g]	metabolism of parent tracer in plasma [4]
{NOTA}-RTCESASHKFEGPCLRDSNCANVCKTEGFHGGKCKGLRRRCFCTKHC (disulfide 3-47, 14-34, 20-41, 24-43) [NOTA-KCNA3P]	50									
{NOTA}-RTCESASHKFEGPCLRDSNCANVCKTEGFHGGKCKGLRRRCFCTKHC (disulfide 3-47, 14-34, 20-41, 24-43) [[^18F]AlF-NOTA-KCNA3P]		rapid	relatively low	excretion via the kidneys and hepatobiliary routes	no difference	0.51 ± 0.19	0.53 ± 0.2	1.3 ± 0.36	0.87 ± 0.15	less than 30%
